Experimental data published in patent US10696686B2, “Herbicidally active (alkynyl-phenyl)-substituted cyclic dione compounds and derivatives thereof” (Syngenta Limited, priority 2013, dated 2020).

Key:
Assay in all cases: Biological Example 3 glasshouse assay using various adjuvant systems, post-emergence foliar spray
Type in all cases: in vivo
[1] = tested on: Brachiaria decumbens (BRADC); conditions: 8 g/ha, 14 DAA (A11: 14 or 15 DAA), adjuvant 0.5% v/v Adigor + 1.0% v/v AMS + 12.5% v/v IPA
Method: (§1) Post-emergence foliar spray application, 200 L/ha, usually one or two replicates for the weeds (depending on application rate), and two replicates for soybean.
(§2) Standard warm conditions (tropical), in glasshouse. Specifically, the glasshouse bay conditions are 24° C./18° C. day/night; 16/8 hours light/dark; 65% humidity.
(§3) The herbicidal application takes place at the following growth stages for plants which include inter alia one or more of the following plants (usually the herbicidal application takes place on at least the following plants: DIGSA, ELEIN, SETFA, ZEAMX, GLXMA Nikko, and GLXMA TMG133, and often also either BRADC or BRAPP):
Brachiaria decumbens (BRADC)—growth stage (GS) 12 or 13 (or GS 12)—or, if BRADC is not used, then usually Brachiaria platyphylla (BRAPP)—growth stage 12 or 13
(§4) Each test compound is applied with one of the following adjuvant systems (all percentages are final concentrations in the aqueous spray mixture):
(§5) Adjuvant system 1: 0.5% v/v Adigor™ *, 1.0% v/v AMS (ammonium sulphate) and 12.5% v/v IPA (isopropyl alcohol).
(§6) Adjuvant system 1A: 0.5% v/v Adigor™ * and 12.5% v/v IPA (isopropyl alcohol).
(§7) CAS Registry no. 166412-78-8), and is usually available from BASF. “Isononyl” in this context is thought to mean a mixture of two or more branched isomers of C9H19. […] A visual assessment of the % herbicidal damage is made 7 and 14 Days After herbicide Application (DAA) (or, in a minority of cases, 7 and 15 DAA), and the results are recorded as % visual herbicidal damage where 0%=no damage to plants and 100%=plant totally killed. *** Adjuvant system=either Adigor™ or Hexamoll DINCH™ or tris-(2-ethylhexyl) phosphate each at 0.5% v/v, and 12.5% v/v IPA (isopropyl alcohol), and 1.0% v/v AMS (ammonium sulphate); or 0.5% v/v Adigor™ and 12.5% v/v IPA (isopropyl alcohol); all percentages are final concentrations in the aqueous spray mixture. […]

[2] = tested on: Digitaria sanguinalis (DIGSA); conditions: 8 g/ha, 14 DAA (A11: 14 or 15 DAA), adjuvant 0.5% v/v Adigor + 1.0% v/v AMS + 12.5% v/v IPA
Method: as §1, §2, §3
Digitaria sanguinalis (DIGSA)—growth stage 12 or 13
as §4, §5, §6
(§8) CAS Registry no. […] A visual assessment of the % herbicidal damage is made 7 and 14 Days After herbicide Application (DAA) (or, in a minority of cases, 7 and 15 DAA), and the results are recorded as % visual herbicidal damage where 0%=no damage to plants and 100%=plant totally killed. *** Adjuvant system=either Adigor™ or Hexamoll DINCH™ or tris-(2-ethylhexyl) phosphate each at 0.5% v/v, and 12.5% v/v IPA (isopropyl alcohol), and 1.0% v/v AMS (ammonium sulphate); or 0.5% v/v Adigor™ and 12.5% v/v IPA (isopropyl alcohol); all percentages are final concentrations in the aqueous spray mixture. […]
The percentages of herbicidal damage/plant control, at 14 Days After herbicide Application (DAA) (or, in a minority of cases, at 15 DAA), for the Compounds tested and for some of the plants tested, were in the following percentage ranges. […] Phytotoxicity on Glycine max (GLXMA, Soybean) Cultivar “TMG133” Glycine max (GLXMA, soybean) cultivar “TMG133” is Roundup Ready™ glyphosate-tolerant soybean cultivar TMG133, and is typically available from Monsanto in Brazil. […]

[3] = tested on: Eleusine indica (ELEIN); conditions: 8 g/ha, 14 DAA (A11: 14 or 15 DAA), adjuvant 0.5% v/v Adigor + 1.0% v/v AMS + 12.5% v/v IPA
Method: as §1, §2, §3
Eleusine indica (ELEIN)—growth stage 12 or 13
as §4, §5, §6, §8
(§9) The percentages of herbicidal damage/plant control, at 14 Days After herbicide Application (DAA) (or, in a minority of cases, at 15 DAA), for the Compounds tested and for some of the plants tested, were in the following percentage ranges. […] Phytotoxicity on Glycine max (GLXMA, Soybean) Cultivar “TMG133” Glycine max (GLXMA, soybean) cultivar “TMG133” is Roundup Ready™ glyphosate-tolerant soybean cultivar TMG133, and is typically available from Monsanto in Brazil.

[4] = tested on: Setaria faberi (SETFA); conditions: 8 g/ha, 14 DAA (A11: 14 or 15 DAA), adjuvant 0.5% v/v Adigor + 1.0% v/v AMS + 12.5% v/v IPA
Method: as §1, §2, §3
Setaria faberi (SETFA)—growth stage 12 or 13
as §4, §5, §6, §8, §9

[5] = tested on: Zea mays (ZEAMX, maize, corn) cultivar Garland; conditions: 8 g/ha, 14 DAA (A11: 14 or 15 DAA), adjuvant 0.5% v/v Adigor + 1.0% v/v AMS + 12.5% v/v IPA
Method: as §1, §2, §3
Zea mays (ZEAMX, maize/corn, e.g. can occur as volunteer corn) cultivar “Garland”—growth stage 12 or 13
as §4, §5, §6, §7

[6] = tested on: Glycine max (GLXMA, soybean) cultivar Nikko; conditions: post-emergence, 14 DAA (A11: 14 or 15 DAA), adjuvant 0.5% v/v Adigor + 1.0% v/v AMS + 12.5% v/v IPA
Method: as §1, §2, §3
Glycine max (GLXMA, soybean) cultivar “Nikko”—growth stage: 1st trifoliate
as §4, §5, §6
(§10) CAS Registry no. 166412-78-8), and is usually available from BASF. “Isononyl” in this context is thought to mean a mixture of two or more branched isomers of C9H19. Method: Seeds of the weed (including volunteer) plants, typically including inter alia Digitaria sanguinalis (DIGSA), Eleusine indica (ELEIN), Setaria faberi (SETFA), Zea mays (ZEAMX, corn), and sometimes also [either Brachiaria decumbens (BRADC) or Brachiaria platyphylla (BRAPP)], are sown in seed trays (troughs) containing clay loam soil (pH 7.0, 2.2% organic matter, “Trough Mix A”); and soybean seed is sown in pots containing the same soil with 3 soybean seedlings per pot. The plants are sprayed with the test herbicide when they reach the growth stages mentioned above. The test herbicidal solutions are prepared by mixing the appropriate aliquots of the test substance(s) and one of the adjuvant systems indicated above *** in deionised water to give the desired treatment concentration. The herbicidal application is made as a foliar spray, using a tracksprayer. Following the herbicidal application, the plants are watered twice per day for the duration of the test. A visual assessment of the % herbicidal damage is made 7 and 14 Days After herbicide Application (DAA) (or, in a minority of cases, 7 and 15 DAA), and the results are recorded as % visual herbicidal damage where 0%=no damage to plants and 100%=plant totally killed. *** Adjuvant system=either Adigor™ or Hexamoll DINCH™ or tris-(2-ethylhexyl) phosphate each at 0.5% v/v, and 12.5% v/v IPA (isopropyl alcohol), and 1.0% v/v AMS (ammonium sulphate); or 0.5% v/v Adigor™ and 12.5% v/v IPA (isopropyl alcohol); all percentages are final concentrations in the aqueous spray mixture.
(§11) Compounds A8, A11 and A17, which are compounds of formula (I) according to the present invention, were tested in a test method substantially as described above.
(§12) Compound A8 was tested using the 0.5% v/v Adigor™+12.5% v/v IPA adjuvant system. Compounds A11 and A17 were tested using the 0.5% v/v Adigor™+1.0% v/v AMS+12.5% v/v IPA adjuvant system.
The percentages of herbicidal damage/plant control, at 14 Days After herbicide Application (DAA) (or, in a minority of cases, at 15 DAA), for the Compounds tested and for some of the plants tested, were in the following percentage ranges. At least for Compounds A8 and A17, the phytotoxicity results shown herein are the average of 2 repetitions (for the grassy weeds, corn and soybean). […] Control of Zea mays (ZEAMX, Corn), a Warm-Climate (Warm-Season) Grassy Plant Zea mays (ZEAMX, maize, corn) is often present as a “volunteer” weed (“volunteer” corn) in fields where it was planted as a crop in preceding growing season(s) and where the present field crop is not corn. […]

[7] = tested on: Glycine max (GLXMA, soybean) cultivar TMG133; conditions: 14 DAA (A11: 14 or 15 DAA), adjuvant 0.5% v/v Adigor + 1.0% v/v AMS + 12.5% v/v IPA
Method: as §1, §2, §3
Glycine max (GLXMA, soybean) cultivar “TMG133”—which is Roundup Ready™ glyphosate-tolerant soybean cultivar TMG133 (typically available from Monsanto in Brazil)—growth stage: 1st trifoliate.
as §4, §5, §6, §10, §11, §12
The percentages of herbicidal damage/plant control, at 14 Days After herbicide Application (DAA) (or, in a minority of cases, at 15 DAA), for the Compounds tested and for some of the plants tested, were in the following percentage ranges. […]

CC#Cc1cc(F)c(C2C(=O)CCCC2=O)c(OC)c1 [Compound A17]
0%: percentage control of (phytotoxicity on) Brachiaria decumbens (BRADC) [1] | percentage control of Digitaria sanguinalis (DIGSA) [2] | percentage control of Eleusine indica (ELEIN) [3] | percentage control of Setaria faberi (SETFA) [4] | percentage control of Zea mays (ZEAMX, maize, corn) [5]
5%: percentage phytotoxicity on Glycine max (GLXMA, soybean) cultivar Nikko ([6]; 120 g/ha) | percentage phytotoxicity on Glycine max (GLXMA, soybean) cultivar TMG133 ([7]; 120 g/ha)
7.5%: percentage phytotoxicity on Glycine max (GLXMA, soybean) cultivar Nikko ([6]; 240 g/ha) | percentage phytotoxicity on Glycine max (GLXMA, soybean) cultivar TMG133 ([7]; 240 g/ha)
